Data from patent publication US8772341B2, “Compositions for the treatment of hoof diseases” (DeLaval Holding AB, priority 2006, dated 2014).

Key:
[1] = tested on: S. aureus (ATCC 6538); assay: modified AOAC sanitizer test (germicidal activity, with or without manure); format: cell-based, Staphylococcus aureus
Method: (§1) The germicidal activity of a large number of ingredients has been tested for the ability to kill Escherichia coli and Staphylococcus aureus in mixtures that have been contaminated with 10% and 20% manure. E. coli and S. aureus were chosen as representative bacteria for screening purposes. Solutions of the mixtures with 10% manure and bacteria were prepared, and the reduction in the concentration of bacteria was determined after 30 seconds and again after 5 minutes. In addition, the formulas were evaluated for skin irritation based on in vitro test data. The testing method used was that of Wolfgang J. W. Pape, Udo Hoppe: In vitro Methods for the Assessment of Primary Local Effects of Topically Applied Preparations. Skin Pharmacol. (1991), 4: 205-212, which is incorporated herein by reference.
(§2) Experiments were performed to test the germicidal properties of the disclosed compositions using a modified version of the AOAC sanitizer test (Association of Official Analytical Chemists. 1990. Official Methods of Analysis, Pages 138-140 in Germicidal and Detergent Sanitizing Action of Disinfectants 960.09, Vol. I. 15th ed. AOAC, Arlington, Va.). According to this procedure, manure was collected from a dairy farm, dispensed into flasks and autoclaved at 121° C. and 17 psi for 30 minutes. Manure samples were then stored in a freezer until needed. When needed, manure was thawed at room temperature then dispensed into 250 mL Erlenmeyer flasks in amounts appropriate for the challenge desired (10 g for 10% manure, 20 g for 20% manure, etc.). The flasks with manure, and any empty flasks needed, were capped with aluminum foil and autoclaved at 134° C. and ˜20 psi for 4 min.
(§3) Freeze-dried pellets of E. coli (ATCC 11229) and S. aureus (ATCC 6538) were hydrated, placed in test tubes containing nutrient agar and incubated at 37° C. for 24 hours. Sterile buffer (0.0003 M phosphate adjusted to pH 6.6) was used to dilute and transfer the bacteria to additional nutrient agar tubes, which were incubated for another 24 hours. S. aureus was then diluted with buffer and transferred to nutrient agar in French bottles, and E. coli was diluted and transferred to fresh nutrient agar tubes. Both types of bacteria were incubated at 37° C. for 72 hours. E. coli was then diluted and transferred to nutrient agar in French bottles. Sterile buffer and glass beads were added to the S. aureus French bottles and the solution was vacuum filtered through a #2 filter. […] After 24 hours, the E. coli suspension was collected in the same manner.
(§4) Germicide sample solutions were prepared and dispensed into the flasks containing manure. For tests without manure, 99 mL of germicide were added to an empty, sterile, 250 mL flask. […]

[2] = tested on: E. coli (ATCC 11229); assay: as above; format: cell-based, Escherichia coli
Method: as §1, §2, §3, §4

[3] = tested on: hoof diseases (heel erosion, interdigital dermatitis, foot rot, white line abscess, digital dermatitis); assay: field trial of hoof bath at a commercial dairy farm; format: in vivo, cows; conditions: for Digital Dermatitis, number of hooves / Foot Rot, number of hooves / Heel Erosion, number of hooves / Interdigital Dermatitis, number of hooves / Total number of hoof problems / White Line Abscess, number of hooves: 178 hooves
Method: An 18% solution of N,N-bis(3-aminopropyl)dodecylamine with 0.17% FD&C Red #40 and 0.28% FD&C Yellow #5 was tested in a field trial at a commercial dairy farm. The product was diluted at a rate of 1+66 V/V and used to fill a hoof bath trough that the cows walked through as they left the milking parlor. A fresh hoof bath solution was prepared every day and the cows walked through the solution once each day of the week. For a month before the trial began no hoof bath treatment was applied to the cows. At the start of the trial a complete evaluation of the front and hind hooves was performed by a certified hoof trimmer, along with a veterinarian, who recorded the diseases observed in each hoof. The evaluation of the hooves was again performed after the hoof bath had been used for two months. All hooves that were present for both evaluations, and were not were not treated with antibiotics and wrapped at the first evaluation, were included in the data. […] The trial included 178 hooves.

[4] = tested on: red blood cells; assay: in vitro irritation test on isolated red blood cells (haemolysis, denaturation); format: cell-based, calf; conditions: 18% solution
Method: as §1
Irritation tests were performed to determine whether or not the disclosed compositions would be mild enough for topical application. These tests involved two measurements made on fresh calf blood, where red blood cells were isolated by adding 50 mL of sodium citrate buffer (17.03 g trisodium citrate+8.45 g citric acid diluted to 1 L with bacteria-free DI water) to every 450 mL of blood, then repetitively washing with sodium citrate buffer and centrifuging to remove white blood cells and plasma.
Compositions disclosed herein were introduced into a container containing the isolated red blood cells and values for Haemolysis (H50); a Denaturation Index value (DI); and a Lysis/Denaturation Ratio (L/D) were determined using methods disclosed by Wolfgang J. W. Pape, Udo Hoppe: In vitro Methods for the Assessment of Primary Local Effects of Topically Applied Preparations. Skin Pharmacol. (1991), 4: 205-212. The haemolysis—or tendency of the red blood cells to rupture when in contact with the test product—was measured by the half-haemolysis value H50. The denaturation of protein caused by the test product was measured by the denaturation index (DI). The overall irritation value for a product was determined by the ratio of the H50/DI which is referred to as the lysis/denaturation quotient. The overall irritation score is given by the lysis/denaturation value which is calculated by the equation: L/D=H50 (measured in ppm)/DI (measured in %).
The higher the ppm value for H50 the less irritating the product. A crude scale is H50>500 ppm (non-irritant); 120-500 (slight irritant), 30-120 (moderate irritant), 10-30 (irritant) and 0-10 (strong irritant).
The L/D ratio is the primary value used to determine irritation. […]

[5] = tested on: Bovine Digital Dermatitis (BDD) associated treponeme strains; assay: Treponema study, broth microdilution germicidal susceptibility (MIC/MBC); format: cell-based; conditions: for MBC (minimal bactericidal concentration): average over six Treponema cultures
Excerpt: In an experiment carried out at the University of Liverpool, Liverpool, U.K., Treponema species were isolated from dairy farms and six cultures were used to measure the minimum inhibitory concentration (MIC, the lowest concentration which results in maintenance or reduction of inoculum's viability) and minimal bactericidal concentration (MBC, the lowest concentration which results in biocidal activity) of several commonly used germicides.
Six Bovine Digital Dermatitis (BDD) associated treponeme strains (Table 1) were used to investigate in vitro susceptibility of BDD associated Treponema (Evans, N. J.; Brown, J.; Demirkan, I.; Carter, S. D.; Hart, C. A. “In vitro susceptibility of Bovine Digital Dermatitis associated Treponema to antimicrobial agents” to be submitted to Antimicrob. Agents Chemother. To be submitted for publication September 2007). The strains included two isolates from each of three distinct phylogroups corresponding to three proposed new taxa, Treponema medium subsp. bovis, Treponema bovis and Treponema pedis (Evans, N. J.; Brown, J.; Demirkan, I. Murray, R. D.; Vink, D.; Blowey, R. W.; Hart, C. A.; Carter, S. D. “Tremponema medium subsp. bovis subsp. nov., Treponema bovis sp. nov. and Treponema pedis sp. nov.; novel spirochaetes associated with Bovine Digital Dermatitis.” International Journal of Systematic and Evolutionary Microbiology. Submitted for publication Oct. 18, 2006). […]
To determine MIC values, absorbance at 540 nm was measured for the microplate wells using a Multiskan microtitre plate reader (Thermo Scientific, Hampshire, U.K.). Measurements were recorded before and after incubation at 36° C. under anaerobic conditions—three days for T. pedis strains and four days for T. bovis and T. medium subsp. bovis strains. […] Cell growth was determined by comparison of the absorbance measurement immediately before and after incubation. […]
Microplates were incubated for a further four days at 36° C. under anaerobic conditions. Growth was assessed using phase contrast microscopy. […]

[6] = 18% solution diluted 1+33 with potable water, 5 minutes exposure, 20% manure
[7] = 18% solution diluted 1+66 with potable water (0.27%), 30 seconds exposure, 20% manure
[8] = 18% solution diluted 1+66 with potable water (0.27%), 5 minutes exposure, no manure
[9] = 18% solution diluted 1+180 with potable water (0.1%), 5 minutes exposure, 10% manure
[10] = Primary Evaluation (start of trial, before hoof bath)
[11] = Secondary Evaluation after two months of daily hoof bath, 1+66 V/V

CCCCCCCCCCCCN(CCCN)CCCN [N,N-bis(3-aminopropyl)dodecylamine]
log reduction [1, 6]: > 7.94 log
log reduction [1, 7]: 4.8 log
log reduction [1, 8]: > 8 log
log reduction [1, 9]: > 7.94 log
log reduction [2, 6]: > 8.0 log
log reduction [2, 7]: > 8 log
log reduction [2, 8]: > 8 log
log reduction [2, 9]: > 7.97 log
Digital Dermatitis, number of hooves [3, 10]: 33
Foot Rot, number of hooves [3, 10]: 0
Heel Erosion, number of hooves [3, 10]: 43
Interdigital Dermatitis, number of hooves [3, 10]: 2
Total number of hoof problems [3, 10]: 78
White Line Abscess, number of hooves [3, 10]: 0
Digital Dermatitis, number of hooves [3, 11]: 25
Foot Rot, number of hooves [3, 11]: 0
Interdigital Dermatitis, number of hooves [3, 11]: 0
Total number of hoof problems [3, 11]: 51
White Line Abscess, number of hooves [3, 11]: 1
Heel Erosion, number of hooves ([3]; Secondary Evaluation after two months of daily hoof bath, 18% solution with dyes diluted 1+66 V/V): 25
reduction in the total number of hoof problems ([3]; after two months of hoof bath treatment): ~35%
hooves with digital dermatitis at the beginning of the trial that were cured ([3]; after two months of treatment): Forty
hooves not infected at the beginning that did not develop any signs of digital dermatitis ([3]; by the end of the two month treatment): ninety
skin irritation (conclusion from L/D) [4]: does not cause skin irritation
combined L/D value (lysis/denaturation ratio) ([4]; L/D = H50/DI): 7×10^3
DI value (denaturation index) ([4]; calf red blood cells): 2.6%
H50 value (half-haemolysis) ([4]; calf red blood cells): 18000 ppm
MBC (minimal bactericidal concentration) [5]: 0.00051 % w/w

O=S(=O)([O-])[O-].[Cu+2] [copper sulfate]
MBC (minimal bactericidal concentration) [5]: 0.0054 % w/w

C=O [formaldehyde]
average MEC ([5]; six Treponema cultures): 0.0094 % w/w
